# Read-outs that look alike come from different tables or passages of the source.
# Assays:
# [1] = system: thrombocyte aggregation (platelet-rich plasma of healthy test persons); experiment: Collagen-induced thrombocyte (platelet) aggregation in platelet-rich plasma, method of Born and Cross; assay type: cell-based, human; settings: sodium citrate, 10 minutes incubation at 37° C., read-out: EC50 (50% change in optical density, inhibition of collagen-induced aggregation)
# Method: Thrombocyte aggregation was measured according to the method of Born and Cross [J. Physiol. 170, 397 (1964)]in platelet-rich plasma of healthy test persons. To inhibit coagulation, the blood was mixed with sodium citrate in a volume ration of 1:10.
# After addition of the aggregation-inducing substance, the rate of decrease in optical density of the platelet suspension is measured photometrically and recorded. The rate of aggregation was determined from the angle of inclination of the density curve. The point on the curve at which there was the greatest translucence served for calculating the optical density.
# The quantity of collagen was chosen as small as possible, but sufficient so that an irreversible reaction was obtained. Commercial collagen of Hormonchemie, Munich, was used. Before the collagen was added, the plasma was incubated for 10 minutes with the test substance at 37° C.
# An EC50 corresponding to a 50% change in the optical density with respect to aggregation inhibition was calculated graphically from the measurement values obtained.
# [2] = Acute toxicity in mice after oral administration; assay type: in vivo; settings: mouse, in vivo, po, dose of 250 mg/kg, observation time 14 days
# Method: (§1) The acute toxicity of the test compounds was determined on groups of 6 to 10 mice after oral administration of a dose of 250 mg/kg (observation time: 14 days). For this purpose, the substances were suspended in 2% methyl cellulose, some water was subsequently added and the test substance was administered to the conscious animals by esophageal tube.
# mice = experiment: Acute toxicity in mice after oral administration; assay type: in vivo; settings: 250 mg/kg p.o., observation time 14 days
# Method: as §1
SMILES,"EC50 ([1]; Homo sapiens, 10 min)",LD50 at 336 h [2],animals died (out of animals tested) (mice),EC50 [1]
"CCCSc1ncnc2c(N3CC[S+]([O-])CC3)nc(NCCO)nc12 [A, 2-(2-Hydroxyethyl-amino)-4-(1-oxido-thiomorpholino)-8-propylthio-pyrimido[5,4-d]pyrimidine]",310 nM,> 250 mg/kg,0 out of 6,
"[O-][S+]1CCN(c2nc(NCCO)nc3c(SC4CCCCC4)ncnc23)CC1 [B, 8-Cyclohexylthio-2-(2-hydroxyethyl-amino)-4-(1-oxido-thiomorpholino)-pyrimido[5,4-d]pyrimidine]",48 nM,> 250 mg/kg,0 out of 10,
"[O-][S+]1CCN(c2nc(NCCO)nc3c(SCc4ccccc4)ncnc23)CC1 [C, 8-Benzylthio-2-(2-hydroxyethyl-amino)-4-(1-oxido-thiomorpholino)-pyrimido[5,4-d]pyrimidine]",21 nM,> 250 mg/kg,0 out of 10,
"COCCN(CCO)c1nc(N2CC[S+]([O-])CC2)c2ncnc(SCc3ccccc3)c2n1 [Compound E, 8-Benzylthio-2-[N-(2-hydroxy-ethyl)-N-(2-methoxyethyl)-amino]-4-(1-oxido-thiomorpholino)-pyrimido[5,4-d]pyrimidine]",52 nM,> 250 mg/kg,0 out of 10,
"[O-][S+]1CCN(c2nc(N(CCO)CCO)nc3c(SCc4ccccc4)ncnc23)CC1 [D, 8-Benzylthio-2-diethanolamino-4-(1-oxido-thiomorpholino)pyrimido[5,4-d]pyrimidine]",62 nM,> 250 mg/kg,0 out of 10,
"CSc1ccc(C(C)Sc2ncnc3c(N4CC[S+]([O-])CC4)nc(NCCO)nc23)cc1 (stereo not drawn) [F, 2-(2-Hydroxyethyl-amino)-8-(α-methyl-4-methylthiobenzylthio)-4-(1-oxido-thiomorpholino)-pyrimido[5,4-d]pyrimidine]",29 nM,> 250 mg/kg,0 out of 6,
"[O-][S+]1CCN(c2nc(NCCO)nc3c(SCc4ccco4)ncnc23)CC1 [G, 8-Furfurylthio-2-(2-hydroxyethyl-amino)-4-(1-oxidothiomorpholino)-pyrimido[5,4-d]pyrimidine]",52 nM,> 250 mg/kg,0 out of 6,
"CCCCN(CC)c1ncnc2c(N3CC[S+]([O-])CC3)nc(NCCO)nc12 [H, 8-(N-Ethyl-butylamino)-2-(2-hydroxyethyl-amino)-4-(1-oxidothiomorpholino)-pyrimido[5,4-d]pyrimidine]",300 nM,> 250 mg/kg,0 out of 6,
"CC(Nc1ncnc2c(N3CC[S+]([O-])CC3)nc(NCCO)nc12)c1ccccc1 [I, 2-(2-Hydroxyethyl-amino)-4-(1-oxido-thiomorpholino)-8-(L-1-phenylethyl-amino)-pyrimido[5,4-d]pyrimidine]",,,,28 nM
"[O-][S+]1CCN(c2nc(NCCO)nc3c(NCc4ccc(Cl)cc4)ncnc23)CC1 [K, 8-(4-Chlorobenzyl-amino)-2-(2-hydroxyethyl-amino)-4-(1-oxido-thiomorpholino)-pyrimido[5,4-d]pyrimidine]",280 nM,> 250 mg/kg,0 out of 10,
"[O-][S+]1CCN(c2nc(N(CCO)CCO)nc3c(N4CCCCC4)ncnc23)CC1 [L, 2-Diethanolamino-4-(1-oxido-thiomorpholino)-8-piperidino-pyrimido[5,4-d]pyrimidine]",690 nM,> 250 mg/kg,0 out of 10,
"CC(C)CCOc1ncnc2c(N3CC[S+]([O-])CC3)nc(N(CCO)CCO)nc12 [M, 2-Diethanolamino-8-isopentoxy-4-(1-oxido-thiomorpholino)-pyrimido[5,4-d]pyrimidine]",460 nM,> 250 mg/kg,0 out of 6,
"[O-][S+]1CCN(c2nc(N(CCO)CCO)nc3c(OCc4ccccc4)ncnc23)CC1 [N, 8-Benzyloxy-2-diethanolamino-4-(1-oxido-thiomorpholino)-pyrimido[5,4-d]pyrimidine]",230 nM,> 250 mg/kg,0 out of 10,
"COCCN(CCO)c1nc(N2CC[S+]([O-])CC2)c2ncnc(OCc3ccccc3)c2n1 [O, 8-Benzyloxy-2-[N-(2-hydroxy-ethyl)-N-(2-methoxy-ethyl)amino]-4-(1-oxido-thiomorpholino)-pyrimido[5,4-d]pyrimidine]",300 nM,> 250 mg/kg,0 out of 6,
"[O-][S+]1CCN(c2nc(N(CCO)CCO)nc3c(OCCCc4ccccc4)ncnc23)CC1 [P, 2-Diethanolamino-4-(1-oxido-thiomorpholino)-8-(3-phenylpropoxy)-pyrimido[5,4-d]pyrimidine]",360 nM,> 250 mg/kg,0 out of 6,
